Converted amounts (≈) assume the structure as drawn. One block for each molecule: values may come before it.
Experiments:
Type in all cases: functional
Aspergillus fumigatus [1] = assay: Antifungal activity against swollen Aspergillus fumigatus
Aspergillus fumigatus [2] = assay: Antifungal activity against Aspergillus fumigatus hyphae
Aspergillus fumigatus [3] = assay: Antifungal activity against resting Aspergillus fumigatus
Aspergillus fumigatus [4] = assay: Antifungal activity against Aspergillus fumigatus infected ICR mouse assessed as median survival time at 750 ug, it administered 1 hr post infection repeated on days 4, 6 and 9
Aspergillus fumigatus [5] = assay: Antifungal activity against Aspergillus fumigatus infected ICR mouse assessed as median survival time at 1 mg/kg, it administered 1 hr post infection repeated on days 4, 6 and 9; settings: route endotracheal

MIC (Aspergillus fumigatus [2]): 30 µg/mL (≈ 185 µM)
Structure (SMILES): C=CCS[S+]([O-])CC=C (stereo not given) [ALLICIN]
MFC (Aspergillus fumigatus [1]): 7.5 µg/mL (≈ 46.2 µM)
MFC (Aspergillus fumigatus [3]): 15 µg/mL (≈ 92.4 µM)

Structure (SMILES): C=CC[S+]([O-])C[C@H](N)C(=O)O (stereo not given in full) [ALLIIN]
MST (Aspergillus fumigatus [4]): 7 days

Structure (SMILES): C[C@@H]1[C@H](O)[C@@H](C)/C=C/C=C/C=C/C=C/C=C/C=C/C=C/[C@H](O[C@@H]2O[C@H](C)[C@@H](O)[C@H](N)[C@@H]2O)C[C@@H]2O[C@](O)(C[C@@H](O)C[C@@H](O)[C@H](O)CC[C@@H](O)C[C@@H](O)CC(=O)O[C@H]1C)C[C@H](O)[C@H]2C(=O)O [AMPHOTERICIN B]
MST (Aspergillus fumigatus [5]): 18 days

Source: ChEMBL document CHEMBL1240367, “Therapy of murine pulmonary aspergillosis with antibody-alliinase conjugates and alliin” (2010)
